The subject of series [1] is LS patient cells. Nature of the series: Ciliogenesis assay. The format is cell-based, Human. As to conditions: serum starvation. As for the experimental part: Cells were seeded on glass cover slips and grown for 24 h in complete media. Then media was replaced by 0.1% serum DMEM (starvation media) containing vehicle or the drug to induce ciliogenesis for the indicated times. Cells were then fixed in 4% formaldehyde—PBS for 10 min and immuno-labeled with anti-acetylated tubulin antibody (see Table 2). At least 50 cells were imaged for every experiment and experiments were repeated at least thrice. The fraction of cells displaying cilia and cilia length were determined as described previously (Coon et al. (2012), supra).

Another series concerns mTOR pathway in LS cells. As to the kind of experiment: Western blotting of PI3K/Akt/mTOR pathway. Format: cell-based, Human. As to the method:
Normal and LS cells were seeded on 100 mm plates and grown to 60-70% confluency in complete media. Then media was exchanged with 0.1% serum DMEM media with DMSO or 10 nM rapamycin for 12 hrs. The cells were washed twice with ice-cold PBS, collected by scraping cells in 200 μl/plate of lysis buffer (25 mM HEPES-KOH, pH7.4, 250 mM NaCl, 1% Triton-X-100 supplement with phosphatase and protease inhibitors), and lysed by passing the cells 10 times through a 26G1/2 needle. The lysates were centrifuged at 14,000×g for 20 min at 4° C., and the supernatant fractions were collected. The samples were analyzed by SDS-PAGE using 7% or 10% polyacrylamide gels and transferred to nitrocellulose membranes. The membranes were blocked with 5% skim milk in PBST (1× phosphate-buffered saline with Tween® detergent) and immunoblotted with the indicated primary and HRP-conjugated secondary antibodies.
The activation of the Akt and mTOR signaling pathways in LS cells treated or not with rapamycin was examined. Cell lysates were prepared, resolved by SDS-PAGE and the presence of phosphorylated and dephosphorylated key elements of the Akt and mTOR pathways were investigated by Western blotting with specific antibodies (FIG. 5D).
In general terms: In western blotting, separated proteins are transferred to a membrane and probed.

In series [2] the test system is LS patient cells. As to the kind of experiment: Cell spreading assay after a predetermined time-point (cell area). The format is cell-based, Human. As to conditions: for LS cell spreading phenotype: LS patient fibroblasts, 30 min after seeding on fibronectin. As to the method:
Two approaches to monitor cell spreading were used: after a predetermined time-point and at multiple time points.
1) Spreading after a Predetermined Time-Point.
(§1) Human dermal fibroblasts (12 h after seeding) were treated with the indicated drug (or vehicle) in 0.1% serum for the indicated time. After drug treatment, the cells were lifted with 20 mM EDTA (ethylenediaminetetraacetic acid) in PBS (phosphate-buffered saline), pelleted at 300×g for 5 min and resuspended in 1% serum in the presence of drug or vehicle. Cell suspensions were then set in a rotator for 1 hour before seeding them on fibronectin-coated coverslips for 30 min, undisturbed, to allow attachment and spreading. After spreading, coverslips were gently rinsed with PBS and fixed in 4% formaldehyde for 10 min at room temperature. Cells were stained with rhodamine—phalloidin and imaged by epifluorescence microscopy. At least 50 cells were quantified per experiment by tracing and measuring cell areas by using the magic wand tool in ImageJ software (National Institutes of Health (NIH), Bethesda, MD, USA).
(§2) Cell spreading on fibronectin-coated surfaces of cells treated with RhoA modulators in comparison to untreated cells was observed. Cells were fixed and stained with fluorescently labeled-phalloidin after 30 min spreading time at 37° C. Following imaging, cell area measurements were performed.

In a further series the test system is Normal fibroblasts. The description is as above. Format: cell-based, Human. As to conditions: 30 min after seeding on fibronectin. As for the experimental part: as §1, §2
The next series concerns normal cells. As to the kind of experiment: Cell adhesion by time-lapse microscopy. The format is cell-based, Human. As for the experimental part:
Human dermal fibroblasts were treated as described above, seeded on fibronectin-coated LabTek chambers, and allowed to attach and spread. Cells were imaged at intervals of 10 min after seeding for 8 h using 20× objective in a Zeiss Axiovert inverted microscope. Number of detaching cells was quantified every 10 min up to the first hour by using the cell counter tool in ImageJ (NIH). To determine spreading kinetics, individual cells were tracked in each time lapse image and were scored from 1-5 based on general cell morphology. Briefly, cells that were just attached and looked circular with no protrusions or visible extensions received a score of 1. Cells with needle-like (filopodia) projections were scored 2, cells with lamellopodia-like extensions were scored 3, cells with more extended lamellopodia-like extensions and increased cell area were given a score of 4, and a further increase in cell area, often accompanied by isotropic spread morphology, was given a score of 5. Alternatively, cells were treated as described above and allowed to attach on fibronectin-coated dishes. Immediately after seeding, the cells were imaged with a 10× objective simultaneously using up to 3 Cytosmart Imaging Systems (Lonza, Basel, Switzerland) at intervals of 30 s for 2 h. Number of cells attached was quantified every 10 min up to the first hour using the Cell Counter tool in ImageJ software (NIH).

The next series deals with HK2 OCRL1 K.O. cells. Nature of the series: Indirect immunofluorescence for lysosomes (Lamp2, autolysosomes). The format is cell-based, Human. Particulars: rapamycin (10 nM) or WYE (1 μM). As to the method:
Following treatment with drugs, cells were washed and fixed with 4% formaldehyde-PBS for 10 min and immune-labeled for LAMP2 (lysosome-associated membrane protein 2). Random fields were imaged using a Zeiss Axiovert inverted microscope using a 40× objective with constant fluorescence exposure times.

The subject of series [3] is LS patient cells. Nature of the series: Viability/toxicity assessment (cell counting, morphology, MTT). The format is cell-based, Human. Particulars: for toxicity (viability and stress-induced changes in morphology): LS cells after exposure to statins. As to the method: Cells were incubated with the indicated drugs for the specified times at different concentrations as described in low serum (0.1%) media to avoid substantial protein-mediated drug sequestration. In addition to cell counting post-treatment, a sample of cells seeded on fibronectin-coated coverslips was fixed and stained with fluorescein isothiocyanate (FITC)-phalloidin and DAPI (4′,6-diamidino-2-phenylindole) for cell morphology inspection. Viability was monitored by performing MTT (3-(4,5-dimethylthiazol-2-yl)-2,5-diphenyltetrazolium bromide) assays as follows: Following treatment of cells (in triplicates) with indicated drugs at different concentrations for specified times, media were aspirated and replaced with MTT solution (freshly prepared at 0.5 mg/ml in complete media) and incubated for 1.5 h. Additionally, a blank control with only MTT reagent containing no cells was also prepared. Following incubation, solution was aspirated and MTT was immediately solubilized using 1 mL DMSO (dimethylsulfoxide) (per well) by gentle pipetting. Absorbance values of solubilized MTT solution from the different wells were measured at 570 nm using a spectrophotometer.

The conditions of series [4]: current approved rapamycin treatments; cited from earlier work.
The subject of series [5] is HK2 and HEK293T OCRL1 K.O. cells. Nature of the series: Cell spreading assay in kidney knock-out cells. As to conditions: HK2 and HEK293T OCRL1 K.O. vs wild-type. Format: cell-based, Human. As for the experimental part: Normal (GM07492) and LS primary dermal fibroblasts (GM01676 and GM03265) were obtained from the NIHGMS Human Genetic Cell Repository (Coriell Institute for Medical Research, Camden, NJ, USA). Cells were maintained in Dulbecco's Modified Eagle Medium (DMEM), streptomycin/penicillin, 2 mM L-glutamine and 15% fetal bovine serum (FBS) at 37° C. in a 5% CO2 incubator. When needed, cells were transferred to fibronectin-coated surfaces (plates or coverslips) prepared by incubation with 10 μg/mL fibronectin for 2 h at 37° C. Normal human proximal tubule epithelial (HK2) and human embryonic kidney epithelial 293T (HEK293T) cells obtained from ATCC were grown in DMEM, streptomycin/penicillin, 2 mM L-glutamine and 10% FBS at 37° C. in a 5% CO2 incubator. OCRL1^−/− (OCRL K.O) HK2 and HEK293T cells were prepared by GenScript, Inc., Piscataway, NJ, USA, and maintained under the same conditions as their normal counterparts. Characterization of these cell lines has been described before (Hsieh et al., PLoS One 10.1371/jounal.pone.0192635 (Feb. 14, 2018)).
Human dermal fibroblasts (12 h after seeding) were treated with the indicated drug (or vehicle) in 0.1% serum for the indicated time. […] At least 50 cells were quantified per experiment by tracing and measuring cell areas by using the magic wand tool in ImageJ software (National Institutes of Health (NIH), Bethesda, MD, USA).

Regarding `CC(C)n1nc(-c2ccc3oc(N)nc3c2)c2c(N)ncnc21` [INK128], the “ciliogenesis / PC assembly defects in LS cells” value in the series with LS patient cells [1] is given as “rescue ciliogenesis defects in LS cells”. Moreover, the “mTOR activation / phosphorylation” value with mTOR pathway in LS cells was “able to decrease mTOR phosphorylation”.
For the compound `O=S(=O)(c1cccc2c(I)cccc12)N1CCCNCC1` [ML-7], in the series on LS patient cells [2], the “LS cell spreading phenotype” value is recorded as “able to mitigate the cell spreading phenotype”.
`CCCC[C@@H](C=O)NC(=O)[C@H](CC(C)C)NC(=O)OCc1ccccc1` [RhoA activator, calpeptin]: in the series with LS patient cells [2], the “LS cell spreading phenotype” value was “worsened the already impaired spreading ability of LS cells”. For the same compound, the “cell spreading of normal cells” value with Normal fibroblasts was “displayed a “LS-like” cell spreading phenotype”. In addition, the “proportion of de-attaching cells” value in the series on normal cells is given as “increased proportion of de-attaching cells”.
As to `C[C@@H]1COCCN1c1cc(=O)n2c(n1)N(Cc1cncc(Cl)c1)[C@H](C(F)(F)F)CC2` [SAR405], the “ciliogenesis / PC assembly defects in LS cells” value in the series with LS patient cells [1] was “had no effect on ciliogenesis by LS cells”. Moreover, the “mTOR activation / phosphorylation” value in the series with mTOR pathway in LS cells is reported as “did not affect mTOR activation”.
With `CNC(=O)Nc1ccc(-c2nc(N3CC4CCC(C3)O4)c3cnn(C4CCC5(CC4)OCCO5)c3n2)cc1` [WYE132], the “ciliogenesis / PC assembly defects in LS cells” value in the series with LS patient cells [1] is “rescue ciliogenesis defects in LS cells”. The “mTOR activation / phosphorylation” value with mTOR pathway in LS cells is “able to decrease mTOR phosphorylation”. Further, in the series on HK2 OCRL1 K.O. cells, the “autolysosome deficiencies (fraction of cells displaying autolysosomes)” value is “can be rescued”.
Take `CC(C)c1c(C(=O)Nc2ccccc2)c(-c2ccccc2)c(-c2ccc(F)cc2)n1CC[C@@H](O)C[C@@H](O)CC(=O)O` [atorvastatin]: the “LS cell spreading phenotype” value with LS patient cells [2] was “mitigated to a certain extent the LS spreading phenotype”.
Consider `COCc1c(C(C)C)nc(C(C)C)c(/C=C/[C@@H](O)C[C@@H](O)CC(=O)O)c1-c1ccc(F)cc1` [cerivastatin], for which the “toxicity (viability and stress-induced changes in morphology)” value with LS patient cells [3] was “substantially toxic”.
Take `CSCC[C@H](NC(=O)c1ccc(NC[C@@H](N)CS)cc1-c1ccccc1)C(=O)O` [farnesylation inhibitor]: the “LS cell spreading phenotype” value in the series with LS patient cells [2] is on record as “rescue the cell spreading phenotype of LS patient cells”.
Still for that read-out and setting: the value for `O=S(=O)(c1cccc2cnccc12)N1CCCNCC1` [fasudil] was “in contrast to the ROCK-inhibitor fasudil, the MLCK-inhibitor ML-7 was able to mitigate”.
Turning to `O=C(O)C[C@H](O)C[C@H](O)/C=C/c1c(C2CC2)nc2ccccc2c1-c1ccc(F)cc1` [pitavastatin], the “LS cell spreading phenotype” value in the series on LS patient cells [2] is given as “mitigated to a certain extent the LS spreading phenotype”. Also, the “ranking of statins: rescue effect over needed dose and toxicity” value with LS patient cells [2] (LS spreading defects) was “rosuvastatin>pitavastatin>>>simvastatin and others”. Besides, in the series on LS patient cells [3], the “toxicity (viability and stress-induced changes in morphology)” value is on record as “substantially toxic”.
As to `CO[C@H]1C[C@@H]2CC[C@@H](C)[C@@](O)(O2)C(=O)C(=O)N2CCCC[C@H]2C(=O)O[C@H]([C@H](C)C[C@@H]2CC[C@@H](O)[C@H](OC)C2)CC(=O)[C@H](C)/C=C(\C)[C@@H](O)[C@@H](OC)C(=O)[C@H](C)C[C@H](C)/C=C/C=C/C=C/1C` [rapamycin], the “toxicity on LS cells (decrease in viability, MTT)” value in the series with LS patient cells [3] (after 72 h-treatment) is 10-15%. For the same compound, in [4], the plasma levels was 10 nM.
C3 transferase [RhoA inhibitor]: the “cell spreading / membrane remodeling phenotype in cells from another LS patient” value in the series on LS patient cells [2] (LS2 cells, FIG. 8A) is recorded as “confirmed”. In addition, in the series with LS patient cells [2], the “LS cell spreading phenotype” value is on record as “ameliorated the cell spread phenotype”. Besides, the “cell spreading phenotype in OCRL1 K.O. kidney cells” value in series [5] is listed as “confirmed”.

These data come from US12310964B2, “Compositions and methods for the treatment of Lowe Syndrome” (Purdue Research Foundation, priority 2020, dated 2025).
